Where a name gives a salt, the structure may show the parent alone. Blank lines part the entries; values can stand above or below the compound they belong to. Residues, ends and D or L forms follow the SMILES beside them.
What was measured:
omalizumab [1] = assay: Viscosity of omalizumab solution by DLS of gold nanoparticles (Example 62); details: omalizumab approximately 200 mg/mL, excipient 0.1M or lower, His HCl pH 6.0, 25° C.
omalizumab [2] = assay: Diffusion interaction parameter kD of omalizumab by DLS (Example 62); details: omalizumab 10 to 0.6 mg/mL, 0.1M excipient, His HCl pH 6.0, 25° C.
ustekinumab [3] = assay: Urea denaturation, Sypro orange fluorescence (Example 44); type: physicochemical; details: excipient 5 mg/mL, ustekinumab 1 mg/mL, 6M urea, 20 mM histidine pH 6.0, Sypro orange fluorescence
From the text: It is known that urea denatures proteins in solution and causes them to unfold. The screening methodology in this example involved adding a specific concentration of urea to a therapeutic protein solution such as ustekinumab. […] One method to track protein unfolding involves the use of extrinsic fluorescent dyes such as Sypro orange. Sypro orange binds to hydrophobic regions in the unfolded protein structure, leading to an increase in the fluorescence signal observed. Measuring the differences in the fluorescence intensity of unfolded protein-Sypro orange complex in presence of different excipients thus allows one to identify any stabilizing effects.
All excipients used in this Example, listed in Table 45 below, were of the highest purity, and were obtained from Sigma Aldrich (St. Louis, MO) or Cayman Chemical (Ann Arbor, MI). […] This urea stock solution was then added to a final concentration of 6M to produce the test solutions (excipient plus protein plus urea). […] The pH of the mixture was rechecked and confirmed to be at pH 6.0. The test solutions were allowed to incubate at room temperature for 30 min.

ustekinumab [4] = assay: Stabilization at low pH, Sypro orange fluorescence (Example 45); details: excipient 5 mg/mL, ustekinumab 1 mg/mL, glycine acidification buffer pH 2.6, Sypro orange fluorescence
omalizumab [5] = assay: DLS viscosity of concentrated omalizumab (Example 54); type: physicochemical; details: concentrated omalizumab 9 parts : 1 part excipient stock (1 M or solubility limit), 20 mM HisHCl pH 6
Description: Hordenine HCl was purchased from Bulk Supplements (Henderson, NV).
The concentrated protein formulation was then combined with a stock excipient solution or a control at a ratio of 9 parts protein: 1 part excipient solution or buffer (for the control), and aliquots were added to the wells of a 384 well microplate (Aurora Microplates, Whitefish, MT). […] After the microplate was shaken, 2 microliters of a 5-fold dilution of polyethylene glycol surface-modified gold nanoparticles having a diameter of 100 nm (nanoComposix, San Diego, CA) in 20 mM His HCl were added to each sample well. […] In this example, the ratio of apparent radius to the actual radius of the gold nanoparticle was multiplied by the viscosity of water at 25° C. to calculate the viscosity of the protein formulation in centipoise (cP).

Compound: NC(C(=O)O)C(O)c1ccccc1 (racemic) [DL-3-phenylserine]
Viscosity normalized to control (omalizumab [1]; Table 62B series): 1.04
kD (omalizumab [2]; Table 62B series): -30.7 mL/g

Compound: NCCCN [1,3-Diaminopropane]
Viscosity normalized to control (omalizumab [1]; Table 62A series): 0.49
kD (omalizumab [2]; Table 62A series): -11.3 mL/g

Viscosity normalized to control (omalizumab [1]; Table 62A series): 0.98
kD (omalizumab [2]; Table 62A series): -30.9 mL/g
Compound: CN1CCN(C)C1=O [1,3-Dimethyl-2-imidazolidinone]

Compound: NCCCN [1,3-diaminopropane]
Viscosity normalized to control (omalizumab [1]; Table 62B series): 0.22
kD (omalizumab [2]; Table 62B series): -11.4 mL/g

Viscosity normalized to control (omalizumab [1]; Table 62A series): 0.83
kD (omalizumab [2]; Table 62A series): -25.1 mL/g
Compound: O=S(=O)(O)c1cccc2c(S(=O)(=O)O)cccc12 [1,5-naphthalenedisulfonic acid]

% increased stability (ustekinumab [3]): 9.0%
Compound: O=C(O)CCCc1ccccc1 [4-phenylbutyric acid]

Viscosity normalized to control (omalizumab [1]; Table 62A series): 0.93
kD (omalizumab [2]; Table 62A series): -31.9 mL/g
Compound: O=C(O)c1cccc(O)n1 [6-hydroxypyridine-2-carboxylic acid]

Viscosity normalized to control (omalizumab [1]; Table 62A series): 0.71
Compound: COC(=O)[C@H](Cc1ccccc1)NC(=O)[C@@H](N)CC(=O)O [Aspartame] (H-Asp-Phe-OMe)

% change in stability (ustekinumab [4]): 1.8%
Compound: OC[C@@H](O)[C@@H](O)CO [Erythritol]

DLS Viscosity, Replicate 1 (omalizumab [5]): 53.4 cP
DLS Viscosity, Replicate 2 (omalizumab [5]): 54.8 cP
Compound: Cn1ccnc1 [Excipient 1-methylimidazole, 1-methylimidazole]

DLS Viscosity, Replicate 1 (omalizumab [5]): 26.0 cP
Compound: CCCCc1ncc[nH]1 [Excipient 2-butylimidazole, 2-butylimidazole]

DLS Viscosity, Replicate 1 (omalizumab [5]): 57.5 cP
DLS Viscosity, Replicate 2 (omalizumab [5]): 71.8 cP
Compound: CCc1ncc[nH]1 [Excipient 2-ethylimidazole, 2-ethylimidazole]

DLS Viscosity, Replicate 1 (omalizumab [5]): 65.6 cP
DLS Viscosity, Replicate 2 (omalizumab [5]): 81.3 cP
Compound: Cc1ncc[nH]1 [Excipient 2-methylimidazole, 2-methylimidazole]

Compound: Nc1ccncc1 [Excipient 4-aminopyridine, 4-aminopyridine]
Viscosity normalized to control (omalizumab [1]; Table 62B series): 0.59
kD (omalizumab [2]; Table 62B series): -22.5 mL/g

Compound: CN(C)CCc1ccc(O)cc1 [Hordenine HCl]
DLS Viscosity, Replicate 1 (omalizumab [5]): 36.9 cP
DLS Viscosity, Replicate 2 (omalizumab [5]): 22.8 cP

% change in stability (ustekinumab [4]): 0.6%
Compound: OC[C@@H](O)[C@@H](O[C@@H]1O[C@H](CO)[C@H](O)[C@H](O)[C@H]1O)[C@H](O)[C@@H](O)CO [Lactitol]

% change in stability (ustekinumab [4]): 9.4%
Compound: OC[C@H]1OC(O)[C@@H](O)[C@@H](O)[C@@H]1O (stereo partly drawn) [Mannose]

DLS Viscosity, Replicate 1 (omalizumab [5]): 60.1 cP
DLS Viscosity, Replicate 2 (omalizumab [5]): 33.9 cP
Compound: CN[C@@H]1[C@H](O)[C@H](NC)[C@H]2O[C@@]3(O)C(=O)C[C@@H](C)O[C@H]3O[C@@H]2[C@H]1O [Spectinomycin]

Compound: CC[N+](CC)(CC)CC.Cl [Tetraethylammonium HCl]
DLS Viscosity, Replicate 1 (omalizumab [5]): 73.7 cP
DLS Viscosity, Replicate 2 (omalizumab [5]): 58.3 cP

Compound: NCC(=O)NCC(=O)NCC(=O)NCC(=O)O [Tetraglycine] (H-GGGG-OH)
DLS Viscosity, Replicate 1 (omalizumab [5]): 89.7 cP
DLS Viscosity, Replicate 2 (omalizumab [5]): 72.2 cP

Compound: NCCc1c[nH]c2ccccc12 [Tryptamine]
% increased stability (ustekinumab [3]): 11.6%

% increased stability (ustekinumab [3]): 1.4%
Compound: NC(=NO)c1ccccc1 [benzamide oxime]

Viscosity normalized to control (omalizumab [1]; Table 62A series): 0.73
kD (omalizumab [2]; Table 62A series): -33.9 mL/g
Compound: O=C(O)/C=C/c1ccc(O)c(O)c1 [caffeic acid]

Viscosity normalized to control (omalizumab [1]; Table 62B series): 0.73
kD (omalizumab [2]; Table 62B series): -18.5 mL/g
Compound: NCCS [cysteamine HCl]

Viscosity normalized to control (omalizumab [1]; Table 62B series): 1.10
kD (omalizumab [2]; Table 62B series): -31.2 mL/g
Compound: OCCN(CCO)c1nc(N2CCCCC2)c2nc(N(CCO)CCO)nc(N3CCCCC3)c2n1 [dipyridamole]

Viscosity normalized to control (omalizumab [1]; Table 62B series): 0.51
kD (omalizumab [2]; Table 62B series): -22.4 mL/g
Compound: NCCO [ethanolamine HCl]

Viscosity normalized to control (omalizumab [1]; Table 62B series): 0.93
kD (omalizumab [2]; Table 62B series): -34.9 mL/g
Compound: Nc1nc(=O)c2c([nH]1)NCC(CNc1ccc(C(=O)N[C@@H](CCC(=O)[O-])C(=O)[O-])cc1)N2C=O.[Ca+2] (stereo partly drawn) [folinic acid calcium salt]

% increased stability (ustekinumab [3]): 4.4%
Compound: O=C(O)c1ccncc1 [isonicotinic acid]

Compound: NCCCC[C@H](N)C(=O)O [lysine]
Viscosity normalized to control (omalizumab [1]; Table 62B series): 0.46
kD (omalizumab [2]; Table 62B series): -10.1 mL/g

Viscosity normalized to control (omalizumab [1]; Table 62B series): 0.22
kD (omalizumab [2]; Table 62B series): -13.1 mL/g
Compound: NCc1cccc(CN)c1 [m-xylylenediamine]

Viscosity normalized to control (omalizumab [1]; Table 62B series): 0.83
kD (omalizumab [2]; Table 62B series): -31.4 mL/g
Compound: NC(=O)c1ccc[n+]([C@@H]2O[C@H](COP(=O)([O-])O)[C@@H](O)[C@H]2O)c1 [nicotinamide mononucleotide]

Compound: O=C(O)c1cccnc1 [nicotinic acid]
Viscosity normalized to control (omalizumab [1]; Table 62B series): 0.55
kD (omalizumab [2]; Table 62B series): -24.5 mL/g

% increased stability (ustekinumab [3]): 2.7%
Compound: Nc1ccc(C(=O)O)cc1 [p-aminobenzoic acid]

Viscosity normalized to control (omalizumab [1]; Table 62B series): 0.67
kD (omalizumab [2]; Table 62B series): -24.2 mL/g
Compound: O=C(O)[C@]1(O)C[C@@H](O)[C@@H](O)[C@H](O)C1 [quinic acid]

Viscosity normalized to control (omalizumab [1]; Table 62B series): 1.33
kD (omalizumab [2]; Table 62B series): -29.9 mL/g
Compound: CNCC(=O)O [sarcosine]

Viscosity normalized to control (omalizumab [1]; Table 62B series): 0.31
kD (omalizumab [2]; Table 62B series): -13.7 mL/g
Compound: NCCCCNCCCN [spermidine]

Compound: Pyridyl ethylamine
% change in stability (ustekinumab [4]): 85.6%

Source: patent US20250186600A1, “EXCIPIENT COMPOUNDS FOR PROTEIN FORMULATIONS” (Comera Life Sciences, Inc., priority 2020, published 2025)
